What all share (assay type): in vivo, C57Bl/6J mice
For assay [1], the system named is diet induced obese hyperglycemic mice. Put plainly: Experiment 1: fasting blood glucose after single oral NFR-S-4 lettuce. To be noted: for FBG: mean +/- SD. The method, then: (§1) Five-week-old male C57Bl/6J mice (Jackson Labs) were housed in cages (five mice to a cage) at 25° C. with 12-h light-dark cycle. Mice were given ad libitum access to food and water and after an acclimatization period of one week, rodent diet was switched from chow (Purina, No. 5015) to a very high fat diet (VHFD) containing 60% kcal fat (D12492, Research Diets, New Brunswick, N.J.) for a at least 12 weeks to induce obesity, insulin resistance, and hyperglycemia (Surwit et al., Clin. Exp. Met., 44:645-51, 1995). Weekly food intake per cage and individual body weight measurements were determined throughout the study. All mice were introduced to intragastric feeding prior to treatment. During this time, a gavage administration of 0.2 mL of double distilled water was performed daily for 2-3 days prior to the scheduled experiments.
(§2) For all experiments, mice were randomly divided into fasting blood glucose (FBG)-balanced experimental groups. Lettuce leaves were lyophilized powdered and suspended in 66% labrasol or water for the aqueous extract and Metformin® antidiabetic drug was dissolved in water. Blood glucose levels were measured using an AlphaTrak® handheld glucometer (Abbott Labs Inc., Abbott Park, Ill.) using test strips.
In experiment 1, following a 4 hour fasting period, FBG was measured immediately prior to treatment and 6 hours post treatment. […]
(§3) Statistically significant differences between were analyzed by ANOVA followed by Dunnett's multiple comparisons test and/or paired t-tests (one tail) comparing FBG levels immediately prior to treatment (0 h) and 6 hours after treatment (Table 5). A p-value <0.05 was considered statistically significant.

The test system is the same in assay [2]. Put plainly: Experiment 4: oral glucose tolerance test 2 h after oral S-13 lettuce. Conditions: 300 mg/kg oral 2 h before test. The method, then:
as §1, §2
(§4) In experiment 2, high fat diet-induced obese mice, animals were given daily oral administration of NFR-S-4 aqueous extract (100 or 300 mg/kg) or vehicle (water) for 28 days (n=10) (Table 6). A Metformin® antidiabetic drug group (250 mg/kg) was included as a positive control for the animal model (n=5). Aqueous extracts were prepared by a 5:1 extraction (solvent volume to fresh weight) in hot (100° C.) acidified water (pH 2 with H2SO4) to assist with anthocyanin stability during the extraction process. Mice were fasted overnight prior to an oral glucose tolerance test. For oral glucose tolerance tests, mice were given an oral glucose challenge (2 g/kg) and blood glucose levels were measured prior to glucose challenge and 30, 60, 90, 120 and 180 minutes after glucose administration (Table 6).
In experiment 4, mice were treated with S-13 lettuce (100 mg/kg), vehicle (66% labrasol), or Metformin® antidiabetic drug (300 mg/kg) by oral administration (n=8-10). After 2 h, mice were given an oral glucose tolerance test as described above (Table 8).
as §3

The test system is the same in assay [3]. Description: Experiment 3: fasting blood glucose after single oral S-13 lettuce. The method, then: as §1, §2
In experiment 3, mice were treated using an oral ingestion of vehicle (66% labrasol), S-13 lettuce (100, 300 or 450 mg/kg), green Romaine lettuce (450 mg/kg, commercially available), or Metformin® antidiabetic drug (300 mg/kg) (n=4-5 Following a 4 h fasting period, FBG was measured immediately prior to treatment and 6 h post treatment (Table 7).
as §3

The test system is the same in assay [4]. Description: Experiment 2: oral glucose tolerance test after daily oral NFR-S-4 aqueous extract. Conditions: positive control 250 mg/kg. The method, then:
as §1, §2, §4, §3

The mark [5] stands for this setting: 6 h post treatment, 300 mg/kg oral.

`CN(C)C(=N)N=C(N)N` [Metformin]: the FBG in assay [1] (0 h (immediately prior to treatment), 4 h fast, 300 mg/kg oral group) amounted to 222 ± 19 mg/dL; in assay [1] (setting [5]) it was 133 ± 25 mg/dL; in assay [3] (0 (immediately prior to treatment), 4 h fast, 300 mg/kg oral group, mean +/- SD), 214 ± 20 mg/dL; in assay [3] (setting [5]), 146 ± 34 mg/dL. Moreover, the “% Decrease in FBG” value is listed as 39 +/− 14% in assay [1] (0 h to 6 h, 300 mg/kg oral) and 31 +/− 19% in assay [3] (0 to 6 h, 300 mg/kg oral). In addition, the “FBG, oral glucose tolerance test” value amounted to 206 ± 45 mg/dL in assay [2] (0 min, glucose 2 g/kg); 261 ± 51 mg/dL in assay [2] (30 min); 263 ± 69 mg/dL in assay [2] (60 min); 257 ± 62 mg/dL in assay [2] (90 min); 196 ± 31 mg/dL in assay [2] (120 min); 176 ± 30 mg/dL in assay [2] (180 min). For the same compound, the “FBG, oral glucose tolerance test” value worked out at 181 ± 26 mg/dL in assay [4] (0 min, glucose 2 g/kg); 298 ± 52 mg/dL in assay [4] (30 min); 244 ± 19 mg/dL in assay [4] (60 min); 247 ± 32 mg/dL in assay [4] (90 min); 249 ± 35 mg/dL in assay [4] (120 min). The “Area under the curve, oral glucose tolerance test” value in assay [2] was determined as 40683; in assay [4], 30153.
